Test results published in patent publication US20250361274A1, “PEPTIDE AND PEPTIDE-CONTAINING AGENT” (PEPTIDREAM INC., priority 2022, published 2025).
Entries after “also recorded” stand apart in the source; their conditions may differ. Numbered stars: 1 amine (or outer) side, 2 acyl side, 3 side chain; on linkers, the order of the positions; unused ones are H or OH. Bridge positions count the residues as written; N and C are the ends. Square brackets hold non-standard residues; d marks the D form. Peptide text beside a SMILES is read from it. ξ: configuration not given here. X2 = O=C(C[C@@H](Cc1ccc(-c2ccccc2)cc1)C(=O)[*:2])[C@@H]1CCCN1[*:1]; Phe(4-COOH) = N[C@@H](Cc1ccc(C(=O)O)cc1)C(=O)O; Bip = N[C@@H](Cc1ccc(-c2ccccc2)cc1)C(=O)O; Nle(6-COOH) = N[C@@H](CCCCC(=O)O)C(=O)O; X1 = N=C(CN)NCCC[C@H](N[*:1])C(=O)[*:2]; Ala(4-THP) = N[C@@H](CC1CCOCC1)C(=O)O; ξE = NC(CCC(=O)O)C(=O)O; βAla = NCCC(=O)O

What was measured:
BMP4 = molecular target: T1, BMP4 (Homo sapiens, UniProt P12644); assay: BMP4 signal transduction inhibitory activity: SMAD1 phosphorylation by BMP4 stimulus, AlphaLISA SureFire, A549 cells; assay type: cell-based
T1 sequence (P12644 293-408): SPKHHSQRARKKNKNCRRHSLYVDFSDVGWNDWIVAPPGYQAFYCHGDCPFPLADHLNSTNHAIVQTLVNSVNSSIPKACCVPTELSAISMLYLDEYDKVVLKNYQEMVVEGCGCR

BMP5 = molecular target: T2, BMP5 (Homo sapiens, UniProt P22003); assay: BMP family signal transduction inhibition (SMAD1 phosphorylation), BMP5 stimulus; assay type: cell-based
T2 sequence (P22003 317-454): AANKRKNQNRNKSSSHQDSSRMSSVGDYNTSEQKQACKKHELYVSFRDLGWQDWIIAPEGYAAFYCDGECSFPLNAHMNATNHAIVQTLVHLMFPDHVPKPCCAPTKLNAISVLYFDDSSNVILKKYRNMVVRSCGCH
Excerpt: In the present Example, BMP4 signal transduction inhibition peptide No. 177, peptide No. 29986 (SEQ ID NO: 277 (Example 8)), and peptide SEQ ID NO: 417 (Example 6) synthesized in Example 2, Example 8, and Example 6 were verified in the same manner as in Example 13 in order to confirm presence or absence of signal transduction inhibitory activities obtained by BMPs 2, 5, 6, 9, 12, and 14 belonging to the respective BMP families.
Regarding the concentrations of the respective BMPs in the evaluation, 0.3 nM of BMP2, 2 nM of BMP5, 3 nM of BMP6, 10 nM of BMP9 and BMP12, and 0.6 nM of BMP14 were added, followed by application of stimulus.
Regarding No. 177, the concentrations of the peptides were as follows. Specifically, eight concentrations of the peptides were used at a common ratio of 1/3 starting from 10 nM (BMP2), starting from 200 nM (BMP5), starting from 100 nM (BMP6), starting from 1,000 nM (BMP9 and BMP12), and starting from 60 nM (BMP14). The evaluation was performed in the same manner as in Example 11 except for the above points. Note that recombinant Human Noggin Protein (R&D) as a positive control was used at the same concentration as the peptide.
Regarding the peptide SEQ ID NO: 277 (Example 8), the concentrations of the peptides were as follows. […]

CC(C)[C@@H]1NC(=O)[C@H](CCCNC(=N)N)NC(=O)[C@H](CCCCC(=O)O)NC(=O)CSC[C@@H](C(=O)NCCC(=O)NC(CCC(=O)O)C(=O)O)NC(=O)[C@H](CO)NC(=O)[C@H](Cc2ccc(C(=O)O)cc2)NC(=O)[C@H](Cc2ccc(C(=O)O)cc2)NC(=O)[C@H](Cc2ccc(O)cc2)NC(=O)[C@H](Cc2ccc(-c3ccccc3)cc2)CC(=O)[C@@H]2CCCN2C(=O)[C@H](Cc2ccc(O)cc2)NC(=O)[C@@H]2CCCN2C(=O)[C@H](Cc2ccc(-c3ccccc3)cc2)NC(=O)[C@H](CCCNC(=N)CN)NC(=O)[C@H](CC(=O)O)NC(=O)[C@H](CC2CCOCC2)NC(=O)[C@H](Cc2ccc(C(=O)O)cc2)NC1=O (stereo partly shown) [SEQ ID No. 177] ({CH2CO}-[Nle(6-COOH)]RV[Phe(4-COOH)][Ala(4-THP)]D[X1][Bip]PY[X2]Y[Phe(4-COOH)][Phe(4-COOH)]SC[βAla][ξE]-OH; thioether N-16)
BMP4 inhibitory activity (in words) (BMP4): same level of the BMP4 inhibitory activity as Noggin; also recorded: signal transduction inhibitory activities of BMP4 and BMP7 | IC50 (BMP4; Table 2, eight concentrations, ratio 1/3 from 2 nM, A549 cells): 0.053 nM | aLISA BMP4 (BMP4; class of inhibition of SMAD1 phosphorylation by BMP4 stimulus, AlphaLISA, A549 cells): A (showed an inhibitory activity of 50% or more in a zone to which the peptide was added to in an amount of 0.2 nM) | BMP5 signal transduction inhibitory activity (in words) (BMP5): signal transduction inhibitory activities of BMP2, BMP5, and BMP6
